Experimental data from patent US8283375B2, “2, 6 xylidine derivatives for the treatment of pain” (Krisani Biosciences (P) Ltd., priority 2011, dated 2012).

System: spinal nerve ligation model for neuropathic pain in rats
Assay: Von Frey test for mechanical allodynia in Chung spinal nerve (L5-L6) ligation model
Format: in vivo, SD rats
Details: 150 mg/kg; for analgesic efficacy on mechanical allodynia compared to Vehicle (conclusion in words): b105: 2 and 4.5 hours post-treatment on day 14 and 4.5 hours on day 21, b109: 2 hours post-treatment on days 14 and 21
From the text: Experimental animals were male SD rats with a starting weight of 230-250 grams. Total number of animals were n=90 for surgery and n=60 after selection. The animals were caged in groups of 3 in a temperature and humidity controlled area. They were maintained on a 12 hr light/dark cycle and had ad libitum access to food and water.
Neuropathic pain inducement was done by following principles of Chung induced model. The SD rats were anesthetized using ketamine/xylazine sodium. The rats were shaved and placed in prone position for surgery. The L5-L6 spinal nerves were surgically litigated. The rats were returned to their cages for recuperation and recovery under comfortable warm conditions using heat lamps.
After seven days of surgery a pre selection was performed. Animals that indicate signs of post operative pain were to be selected to proceed. Pain is detected by observing when one or more of the criteria are met as follows. Licking of the operated paw, accompanied by gentle biting or pulling on the nails with the mouth; placing the leg in the air; bearing weight on the side contra-lateral to the nerve injury; deformities of the hind paw and abnormal posture and walking; weakness of the left hind paw. […] However, the animal must be able to move its leg to ensure that the L4 spinal nerve is intact. If the animal cannot move its leg, it was excluded from the study.
Second level of selection of the rats was done on day 14 after the surgery. Von Frey test was performed on the preselected rats after day 7 on day 14. Using Von Frey methodology, animals with a pain threshold of ≦26 g for the operated leg will be included in the study. After this selection step, the animals were randomly placed into their experimental groups.
Blank, positive control and test compound: Blank was just the medium used for dissolving other compounds. The positive control was Gabapentin and the test compound was the final compound of formula 1 discussed in the instant disclosure. Three types of experimental groups were formed. Different types of chemicals such as Vehicle and Control were used to determine the efficacy of the chemicals as well comparison of the instant disclosed compound of formula 1, with a positive control was performed. The final compound of the instant disclosure was administered at 100 mg/kg and 150 mg/kg body weight as two different groups. The Gabapentin was administered at 150 mg/kg body weight.
On day 14 blank compound and final compound will be administered once daily starting on study day 14 through study day 21. Gabapentin, the positive control, will be administered 2 hours prior to pain testing on study days 14 and 21. […]
Pain Response Evaluation: Pain response was evaluated using Von Frey test for mechanical allodynia. […]

NCC1(CC(=O)O)CCCCC1 [Gabapentin, reference compound]
duration of analgesic activity / activity compared with gabapentin (in words): active only at 2 hours post dosing

CCN(CCOC(=O)CCCCC1CCSS1)CC(=O)Nc1c(C)cccc1C (stereo not shown) [KRB-5b]
duration of analgesic activity / activity compared with gabapentin (in words): prolonged analgesic activity compared to gabapentin
analgesic efficacy on mechanical allodynia compared to Vehicle (conclusion in words): effective as a pain analgesic item
analgesic efficacy on mechanical allodynia compared to Vehicle (conclusion in words) (listed as compound of formula 1): effective in treating the spinal nerve ligation model for neuropathic pain in rats
